One data set addresses T1, NMDA NR1/NR2B receptor (Homo sapiens, UniProt Q05586+Q13224).
T1 construct: host or cells: HEK293, tetracycline-inducible expression
The experiment in a line: In vitro NMDA NR1/NR2b cell assay (FLIPR, intracellular calcium induced by glycine/glutamate). The class given is cell-based. Particulars: HEK293 cells expressing NMDA NR1/NR2B, 20 μM glycine, 1 μM glutamate, compounds of the invention (Table 1). The procedure:
A human HEK293 cell line with tetracyclin-inducible expression of NMDA NR1/NR2B receptor was used as a test system for compound efficacy and potency. The cell line was purchased from ChanTest, Catalog # CT6121. Compound activity was determined by measuring the effect of compounds on intracellular calcium concentration induced by glycine/glutamate agonism in a FLIPRtetra system (Molecular Devices).
The cells were obtained as frozen cells in cryo-vials and stored until use at −150° C. Cells were grown in culture medium (DMEM/F12, 10% FBS, 5 μg/mL Blasticidin, 150 μg/mL Zeozin, 500 μg/mL Geneticin). […] For sub-culturing the cells were detached from flasks by Versene. For the assay, cells were detached, washed twice with induction medium (DMEM/F12 without glutamine, 10% FBS, 2 μg/mL Tetracycline, 2 mM Ketamine) and seeded to 384 well pure coat amine plates (BD 359324, 50000 cells per well in 50 μl) 48 h prior to assay in induction medium.
The test compounds were dissolved in 100% DMSO at a concentration of 10 mM and in a first step diluted in DMSO to a concentration of 5 mM, followed by serial dilution steps in 100% DMSO. Dilution factor and number of dilution steps may vary according to needs. Typically 8 different concentrations by 1:5 dilutions were prepared in duplicate, further intermediate dilutions (1:37.5) of the substances were carried out with aqueous assay buffer (137 mM NaCl, 4 mM KCl, 1.8 mM CaCl, 10 mM HEPES, 10 mM Glucose, pH 7.4) resulting in a compound concentration 3 times above the final test concentration and DMSO at 2.7% resulting in 0.9% final DMSO concentration in the assay.
At the assay day cells were washed 3× with assay puffer, 10 μL buffer remained in the wells after washing. 10 μL Ca kit loading buffer (AAT Bioquest) was added to the cells and the plates were incubated with lid for 60 minutes at r.t. 20 μl assay buffer containing 60 μM glycine (20 μM final) and 3 μM glutamate (1 μM final) was added to column 1-23. Fluorescence (indicating the calcium influx as a result of the NR1/NR2B ion channel activation) was read on the FLIPRtetra device for 60 seconds to monitor the glutamate induced effects. After 2 minutes 20 μL of compound or controls (row 1-22) in assay buffer were carefully added to the wells. […] The average of 2 measurements at 5 minutes and 5 min 10 seconds after compound addition is calculated and further used for IC50 calculations. Each assay microtiter plate contained wells (in column 23 or 24) with DMSO controls instead of compound as controls for glycine/glutamate induced fluorescence (high controls) and wells with 1 μM of a reference NR2b NAM as low controls (Compound 22; reference: Layton, Mark E et al, ACS Chemical Neuroscience 2011, 2(7), 352-362).
The output file of the reader contains the well number and measured average fluorescence units. For data evaluation and calculation, the measurement of the low control was set as 0% control and the measurement of the high control was set as 100% control. The IC50 values were calculated using the standard 4 parameter logistic regression formula. Calculation: [y=(a−d)/(1+(x/c)^b)+d], a=low value, d=high value; x=conc M; c=IC50 M; b=slope.

The nature of data set [1]: Metabolic stability in pooled human liver microsomes. The class given is in vitro ADME. Particulars: pH 7.6; pooled human liver microsomes 1 mg/mL, 1 μM compound, 37° C., NADPH; read-out: Half-life - t½ human liver microsomes. From the text: Stability in human liver microsomes refers to the susceptibility of compounds to biotransformation in the context of selecting and/or designing drugs with favorable pharmacokinetic properties. The primary site of metabolism for many drugs is the liver. Human liver microsomes contain the cytochrome P450s (CYPs), and thus represent a model system for studying drug metabolization in vitro. Enhanced stability in human liver microsomes is associated with several advantages, including increased bioavailability and adequate half-life, which can enable lower and less frequent dosing of patients. Thus, enhanced stability in human liver microsomes is a favorable characteristic for compounds that are to be used for drugs.
The metabolic degradation of the test compound was assayed at 37° C. with pooled human liver microsomes. The final incubation volume of 60 μl per time point contains TRIS buffer pH 7.6 at room temperature (0.1 M), magnesium chloride (5 mM aqueous solution), microsomal protein (1 mg/mL for human) and the test compound at a final concentration of 1 μM. Following a short preincubation period at 37° C., the reactions were initiated by addition of betanicotinamide adenine dinucleotide phosphate, reduced form (NADPH, 1 mM), and terminated by transferring an aliquot into solvent after different time points. After centrifugation (10000 g, 5 min), an aliquot of the supernatant was assayed by LC-MS/MS for the amount of parent compound. The half-life was determined by the slope of the semi-logarithmic plot of the concentration-time profile.

A further data set addresses T2, human MDR1 (P-gp) (Homo sapiens, UniProt P08183).
T2 construct: expressed in transfected cells; host or cells: MDCKII (Madin-Darby canine kidney) cells
Briefly: MDCK assay MDR-1 (p-GP): permeability across MDCK-MDR1 monolayers. Type of data set: in vitro ADME. Particulars: for Papp A→B: MDCK-MDR1 monolayers, apical-to-basal, pH 7.4, 1 or 10 μM; for efflux ratio: pH 7.4, MDCK-MDR1, Papp (b-a) divided by Papp (a-b). The procedure: The MDCK assays provide information on the potential of a compound to pass the blood brain barrier. Permeability measurements across polarized, confluent MDCK-MDR1 cell monolayers grown on permeable filter supports are used as an in vitro absorption model: apparent permeability coefficients (PE) of the compounds across the MDCK-MDR1 cell monolayers are measured (pH 7.4, 37° C.) in apical-to-basal (AB) and basal-to-apical (BA) transport direction. The AB permeability (PEAB) represents drug absorption from the blood into the brain and the BA permeability (PEBA) drug efflux from the brain back into the blood via both, passive permeability as well as active transport mechanisms mediated by efflux and uptake transporters that are expressed on the MDCK-MDR1 cells, predominantly by the overexpressed human MDR1. Identical or similar permeabilities in both transport directions indicate passive permeation, vectorial permeability points to additional active transport mechanisms. Higher PEBA than PEAB (PEBA/PEAB >5) indicates the involvement of active efflux mediated by MDR1, which might compromise the goal to achieve sufficient brain exposure. Therefore, this assay provides valuable support for selection of compounds applicable for further in vivo testing. High permeability not limited by efflux at the blood brain barrier is a favourable characteristic for compounds that are to be used for drugs acting primarily in the CNS. Similar concepts are applicable to the MDCK BCRP assay and its interpretation; consequently, to ensure high permeability at the blood brain barrier, it is highly preferred to minimize the efflux (efflux <5) at both MDR1 and BCRP transporters.
Apparent permeability coefficients (Papp) of the compounds across the MDCK-MDR1 monolayers (MDCKII cells transfected with human MDR1 cDNA expression plasmid) are measured in apical-to-basal (AB) and basal-to-apical (BA) direction.
MDCK-MDR1 cells (6×10^5 cells/cm^2) are seeded on filter inserts (Corning, Transwell, polycarbonate, 0.4 μm pore size) and cultured for 9 to 10 days. Compounds dissolved in DMSO stock solution (1-20 mM) are diluted with HTP-4 aqueous buffer (128.13 mM NaCl, 5.36 mM KCl, 1 mM MgSO4, 1.8 mM CaCl2, 4.17 mM NaHCO3, 1.19 mM Na2HPO4, 0.41 mM NaH2PO4, 15 mM HEPES, 20 mM glucose, pH 7.4) supplemented with 0.25% BSA to prepare the transport solutions (final concentration: 1 or 10 μM, final DMSO <=0.5%). The transport solution is applied to the apical or basolateral donor side for measuring A-B or B-A permeability, respectively. The receiver side contains HTP-4 buffer supplemented with 0.25% BSA. Samples are collected at the start and end of experiment from the donor and at various time intervals for up to 2 hours also from the receiver side for concentration measurement by HPLC-MS/MS. Sampled receiver volumes are replaced with fresh receiver solution. Efflux ratio is calculated dividing the Papp (b-a) values by the Papp (a-b) values.

Each structure is given as a SMILES string.

T1 sequence (Q13224 27-1484, other chains not shown): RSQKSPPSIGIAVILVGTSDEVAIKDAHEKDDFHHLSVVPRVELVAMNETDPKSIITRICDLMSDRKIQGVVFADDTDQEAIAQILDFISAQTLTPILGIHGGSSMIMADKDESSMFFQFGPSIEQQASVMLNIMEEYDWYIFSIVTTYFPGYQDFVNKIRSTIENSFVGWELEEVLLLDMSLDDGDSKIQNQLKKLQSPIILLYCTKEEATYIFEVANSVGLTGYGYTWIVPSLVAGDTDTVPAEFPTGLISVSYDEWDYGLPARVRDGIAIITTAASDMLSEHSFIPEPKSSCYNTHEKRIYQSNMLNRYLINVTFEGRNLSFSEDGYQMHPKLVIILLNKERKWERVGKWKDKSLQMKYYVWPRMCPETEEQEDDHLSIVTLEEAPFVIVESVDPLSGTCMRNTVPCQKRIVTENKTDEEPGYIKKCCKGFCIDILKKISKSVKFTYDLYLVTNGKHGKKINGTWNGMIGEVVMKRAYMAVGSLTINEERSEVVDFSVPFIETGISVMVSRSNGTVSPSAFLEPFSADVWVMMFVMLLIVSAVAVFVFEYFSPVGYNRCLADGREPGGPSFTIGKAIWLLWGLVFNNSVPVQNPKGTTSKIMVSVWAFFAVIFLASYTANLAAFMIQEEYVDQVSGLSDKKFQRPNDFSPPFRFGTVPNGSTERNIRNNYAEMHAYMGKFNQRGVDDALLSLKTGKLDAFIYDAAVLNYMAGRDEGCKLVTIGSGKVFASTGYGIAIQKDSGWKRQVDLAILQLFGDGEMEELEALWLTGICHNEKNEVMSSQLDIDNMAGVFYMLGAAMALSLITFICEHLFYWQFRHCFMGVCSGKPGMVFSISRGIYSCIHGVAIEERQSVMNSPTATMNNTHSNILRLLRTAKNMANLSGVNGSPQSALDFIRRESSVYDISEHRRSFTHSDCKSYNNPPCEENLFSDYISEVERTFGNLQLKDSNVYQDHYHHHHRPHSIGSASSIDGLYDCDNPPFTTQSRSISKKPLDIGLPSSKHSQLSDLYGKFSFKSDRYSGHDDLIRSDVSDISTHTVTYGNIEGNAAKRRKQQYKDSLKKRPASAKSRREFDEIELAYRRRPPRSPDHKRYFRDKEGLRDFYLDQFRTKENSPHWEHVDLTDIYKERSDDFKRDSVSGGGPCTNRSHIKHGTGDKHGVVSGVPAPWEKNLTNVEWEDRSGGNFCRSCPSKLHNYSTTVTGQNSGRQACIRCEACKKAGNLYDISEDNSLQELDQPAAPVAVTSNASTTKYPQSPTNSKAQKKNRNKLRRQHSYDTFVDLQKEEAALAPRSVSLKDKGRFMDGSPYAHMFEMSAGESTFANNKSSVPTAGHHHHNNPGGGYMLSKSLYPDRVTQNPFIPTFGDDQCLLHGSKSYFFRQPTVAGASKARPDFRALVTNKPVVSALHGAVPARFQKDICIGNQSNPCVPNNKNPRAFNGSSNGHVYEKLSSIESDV
T2 sequence (P08183 whole entry): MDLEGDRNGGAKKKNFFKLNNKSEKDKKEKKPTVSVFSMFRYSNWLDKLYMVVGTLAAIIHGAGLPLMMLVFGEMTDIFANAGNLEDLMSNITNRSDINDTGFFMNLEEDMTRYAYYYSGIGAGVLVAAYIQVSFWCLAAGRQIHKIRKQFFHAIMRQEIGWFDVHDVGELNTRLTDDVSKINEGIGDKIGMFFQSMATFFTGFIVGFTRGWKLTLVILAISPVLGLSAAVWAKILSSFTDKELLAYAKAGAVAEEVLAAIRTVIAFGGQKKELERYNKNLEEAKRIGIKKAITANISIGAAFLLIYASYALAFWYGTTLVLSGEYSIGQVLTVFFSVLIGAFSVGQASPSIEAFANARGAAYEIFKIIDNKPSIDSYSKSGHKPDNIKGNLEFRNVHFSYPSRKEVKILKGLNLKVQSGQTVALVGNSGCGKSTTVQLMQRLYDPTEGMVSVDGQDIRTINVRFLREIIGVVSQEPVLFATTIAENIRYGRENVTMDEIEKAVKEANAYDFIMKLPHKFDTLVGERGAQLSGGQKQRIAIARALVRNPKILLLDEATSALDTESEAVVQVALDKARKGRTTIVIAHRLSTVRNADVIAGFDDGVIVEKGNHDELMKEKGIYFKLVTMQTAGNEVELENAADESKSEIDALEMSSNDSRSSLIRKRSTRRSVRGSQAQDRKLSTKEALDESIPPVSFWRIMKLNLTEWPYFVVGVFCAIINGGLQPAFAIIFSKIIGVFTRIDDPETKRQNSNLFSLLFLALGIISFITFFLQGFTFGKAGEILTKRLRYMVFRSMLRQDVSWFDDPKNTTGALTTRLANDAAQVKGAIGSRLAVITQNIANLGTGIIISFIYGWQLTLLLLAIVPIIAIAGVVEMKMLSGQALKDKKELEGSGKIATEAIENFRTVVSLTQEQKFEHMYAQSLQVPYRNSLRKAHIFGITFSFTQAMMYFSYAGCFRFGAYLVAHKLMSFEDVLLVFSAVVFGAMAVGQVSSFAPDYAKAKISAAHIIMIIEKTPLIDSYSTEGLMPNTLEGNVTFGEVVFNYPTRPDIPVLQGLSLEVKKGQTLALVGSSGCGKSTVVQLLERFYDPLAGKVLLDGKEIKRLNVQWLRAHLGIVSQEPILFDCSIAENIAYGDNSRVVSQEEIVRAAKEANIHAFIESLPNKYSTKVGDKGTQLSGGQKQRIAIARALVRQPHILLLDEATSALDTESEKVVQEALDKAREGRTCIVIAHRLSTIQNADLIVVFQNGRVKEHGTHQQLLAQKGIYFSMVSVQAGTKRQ

`Cc1cc(F)ccc1COC(=O)N1CCO[C@H](c2nc3cccnc3[nH]2)C1` [Example 4]: at NMDA NR1/NR2B receptor, the IC50 was determined as 228 nM. Further, the half-life at 1 µM in data set [1] worked out at 24 min.
Consider `Cc1ccnc2[nH]c([C@@H]3CN(C(=O)OCc4ccc(F)cc4)CCO3)nc12` [Example 6], for which the IC50 on NMDA NR1/NR2B receptor was found to be 475 nM. On human MDR1 (P-gp), the Papp A→B came to 44.4 ×10⁻⁶ cm/s and the efflux ratio came out at 1.48. The half-life at 1 µM in data set [1] came out at 40 min.
On to `Cc1cccc(COC(=O)N2CCO[C@H](c3nc4cccnc4[nH]3)C2)c1` [Example 9], for which the IC50 at NMDA NR1/NR2B receptor was 293 nM. Further, at human MDR1 (P-gp), the Papp A→B is 49 ×10⁻⁶ cm/s and the efflux ratio was determined as 1.16. Moreover, in data set [1], the half-life at 1 µM worked out at 22 min.
Consider `O=C(OCc1ccc(F)c(F)c1)N1CCO[C@H](c2nc3cccnc3[nH]2)C1` [Example 24], for which the IC50 on NMDA NR1/NR2B receptor worked out at 748 nM.
On to `O=C(OCc1ccc(Cl)c(F)c1)N1CCO[C@H](c2nc3cccnc3[nH]2)C1` [Example 25], for which, on NMDA NR1/NR2B receptor, the IC50 is 477 nM.

Usually IC50 stands for the concentration at which inhibition is half-maximal. Usually half-life stands for how long it takes for the measured level to halve. Usually Papp A→B stands for the apparent permeability from the apical to the basolateral side of a cell layer. A high value points to ready permeation. For orientation: efflux ratio means the permeability from basolateral to apical divided by that in the opposite direction, in the common usage.

The values above are taken from US10849907B2, “Imidazopyridine derivatives and the use thereof as medicament” (Boehringer Ingelheim International GmbH, priority 2017, dated 2020).
